The subject of assay [1] is T. cruzi amastigote (Td Tomato-modified) in Vero cells. As to the kind of experiment: In vitro IC50 measurement of T. cruzi amastigote killing using Td Tomato-modified T. cruzi. Conditions: Trypanosoma cruzi, 72 h, fluorescence, read-out: IC50: I Org. amastigote Growth T. cruzi 3 d. Format: cell-based. The procedure, abridged: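 Vero cells infected with Td Tomato-expressing T. cruzi, treated with compound at 5 uM to 5 nM final, incubated 72 h at 37 °C. Fluorescence (Ex 544/Em 612 nm) read at Day 0 and Day 3, Day 0 subtracted; IC50 and IC90 by nonlinear regression.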

For assay [2], the system named is IL3000 T. congolense (drug sensitive) strain. Briefly: In vitro Alamar Blue 72 h drug sensitivity assay for T. congolense. Format: cell-based, Trypanosoma congolense. Conditions: Trypanosoma congolense, 72 h, bloodstream form, 69 h + 3 h Resazurin, 34° C., read-out: IC50: I Org. Growth T. congolense 3 d. The procedure, abridged:
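Bloodstream-form trypanosomes in HMI medium with 20% bovine serum were exposed to compounds for 69 h at 34° C, 5% CO2, then resazurin for another 3 h. Fluorescence read at ex 536/em 588 nm; IC50 from 11-point sigmoidal dose-response curves, at least three independent runs.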
A general note: Alamar Blue is a resazurin reagent that responds to reducing activity.

Broadly, the IC50 is the midpoint of a concentration-inhibition curve. Regarding `CC(C)[C@H](NC(=O)c1ccc2c(c1C(F)F)B(O)OC2)C(=O)OCc1ccc(F)cc1` [Example 6-073, 4-Fluorobenzyl (7-(difluoromethyl)-1-hydroxy-1,3-dihydrobenzo[c][1,2]oxaborole-6-carbonyl)-L-valinate], the results for the IC50 in assay [1] and in assay [2] were at most 20 nM and 0.51 to 9.99 nM, respectively.
Take `CC(C)[C@H](NC(=O)c1ccc2c(c1)B(O)OC2)C(=O)OCc1ccccc1` [Example 6-005, Benzyl (1-hydroxy-1,3-dihydrobenzo[c][1,2]oxaborole-6-carbonyl)-L-valinate]: the results for the IC50 in assay [1] and in assay [2] were 21 to 999 nM and 0.51 to 9.99 nM, respectively.
Regarding `Cc1c(C(=O)N[C@H](C(=O)OCc2ccc(F)cc2)C(C)C)ccc2c1B(O)OC2` [Example 6-165, 4-Fluorobenzyl (1-hydroxy-7-methyl-1,3-dihydrobenzo[c][1,2]oxaborole-6-carbonyl)-L-valinate], the IC50 is at most 20 nM in assay [1] and below 0.5 nM in assay [2].
For `C[C@H](NC(=O)c1ccc2c(c1)B(O)OC2)C(=O)O` [Example 6-164, (1-Hydroxy-1,3-dihydrobenzo[c][1,2]oxaborole-6-carbonyl)-L-alanine], the figures for the IC50 in assay [1] and in assay [2] were at least 1000 nM and 10 to 5000 nM, respectively.
The like results for `O=C(N[C@@H](CO)C(=O)OCc1ccccc1)c1ccc2c(c1)B(O)OC2` [Example 6-007, Benzyl (1-hydroxy-1,3-dihydrobenzo[c][1,2]oxaborole-6-carbonyl)-L-serinate] were, in that order, at least 1000 nM and 10 to 5000 nM.
As for `Cc1c(C(=O)N[C@H](C(=O)OCc2c[nH]cn2)C(C)C)ccc2c1B(O)OC2` [Example 6-138, (1H-Imidazol-4-yl)methyl (1-hydroxy-7-methyl-1,3-dihydrobenzo[c][1,2]oxaborole-6-carbonyl)-L-valinate], the 50% inhibitory concentration (IC50) in assay [1] is at least 1000 nM; in assay [2], 10 to 5000 nM.
For the compound `Cc1c(C(=O)N[C@H](C(=O)OCc2cc(F)c(F)c(F)c2)C(C)C)ccc2c1B(O)OC2` [Example 6-100, 3,4,5-Trifluorobenzyl (1-hydroxy-7-methyl-1,3-dihydrobenzo[c][1,2]oxaborole-6-carbonyl)-L-valinate], the IC50 was at most 20 nM in assay [1] and below 0.5 nM in assay [2].
The corresponding values for `Cc1c(C(=O)N[C@H](C(=O)OCc2ccc(OCCN3CCCC3)c(Cl)c2)C(C)C)ccc2c1B(O)OC2` [Example 6-243, 3-Chloro-4-(2-(pyrrolidin-1-yl)ethoxy)benzyl (1-hydroxy-7-methyl-1,3-dihydrobenzo[c][1,2]oxaborole-6-carbonyl)-L-valinate] are 21 to 999 nM and 0.51 to 9.99 nM.
Regarding `Cc1c(C(=O)N[C@H](C(=O)OCc2ccc(CN3CCN(C)CC3)cc2)C(C)C)ccc2c1B(O)OC2` [Example 6-111, 4-((4-Methylpiperazin-1-yl)methyl)benzyl (1-hydroxy-7-methyl-1,3-dihydrobenzo[c][1,2]oxaborole-6-carbonyl)-L-valinate], the values for the IC50 in assay [1] and in assay [2] were at most 20 nM and 0.51 to 9.99 nM, respectively.
In the case of `Cc1c(C(=O)N[C@H](C(=O)OCCC(C)(C)O)C(C)C)ccc2c1B(O)OC2` [Example 6-209, 3-hydroxy-3-methylbutyl (1-hydroxy-7-methyl-1,3-dihydrobenzo[c][1,2]oxaborole-6-carbonyl)-L-valinate], the IC50 was 21 to 999 nM in assay [1] and 0.51 to 9.99 nM in assay [2].
In the case of `Cc1c(C(=O)N[C@H](C(=O)OCc2ccc(C(=O)NCCN(C)C)cc2)C(C)C)ccc2c1B(O)OC2` [Example 6-103, 4-((2-(Dimethylamino)ethyl)carbamoyl)benzyl (1-hydroxy-7-methyl-1,3-dihydrobenzo[c][1,2]oxaborole-6-carbonyl)-L-valinate], the IC50 in assay [1] was at least 1000 nM; in assay [2], 10 to 5000 nM.
With `Cc1c(C(=O)N[C@H](C(=O)OCCN2CCCOCC2)C(C)C)ccc2c1B(O)OC2` [Example 6-214, 2-(1,4-oxazepan-4-yl)ethyl (1-hydroxy-7-methyl-1,3-dihydrobenzo[c][1,2]oxaborole-6-carbonyl)-L-valinate], the half-maximal inhibitory concentration (IC50) in assay [1] was at least 1000 nM; in assay [2], 0.51 to 9.99 nM.

For the origin of these results see patent US11578087B2, “Oxaborole esters and uses thereof” (priority 2016, dated 2023).
